In patent publication US20050009837A1, “Modulators of lipid metabolism and methods of use” (City of Hope, priority 2003, published 2005):
One block for each molecule: values may come before it.

Tests used:
[1] = mice fed the agonist; cited from earlier work
[2] = test system: NIH3T3-L1 adipocytes; assay: Triglyceride content (Nile Red) of NIH3T3-L1 cells differentiated to adipocytes; format: cell-based; conditions: T0901317 200 nM or Clotrimazole 7.5 μm, 7 days
Description: NIH 3T3-L1 cells were maintained in growth media consisting of Dulbecco's modified Eagle's medium (DMEM) supplemented with 10% calf bovine serum (CBS), 50 U/ml penicillin G and 50 μg/ml streptomycin sulfate. To induce NIH 3T3-L1 differentiation into adipocytes, confluent cells were transferred from their growth media to DMEM containing 10% fetal bovine serum (FBS), 5 μg/ml insulin, 0.5 mM 3-isobutyl-1-methylxanthine (IBMX) and 1 μM dexamethasone for 7 days. During the differentiation period, cells also optionally received 200 nM T0901317, 7.5 μM Clotrimazole or both.
NIH3T3-L1 cells were allowed to differentiate for 7 days in the presence of a well-established differentiation cocktail containing dexamethazole (1 μm), IBMX (0.5 mM) and insulin (5 μg/ml) in the absence or presence of T0901317 (200 nM) or Clotrimazole (7.5 μm). The cells then were fixed and stained with Nile Red, which stains triglycerides (TG) green, and DAPI to visualize nuclei (in blue). TG content of the cell reflected increased or decreased lipogenesis.

[3] = test system: SREBP-1c expression; assay: Real-time PCR of SREBP-1c expression in HepG2 cells; format: cell-based, human; conditions: 100 nM, 24 hours, versus untreated
Description: Real time PCR was then performed on cDNA derived from RNA isolated form the treated HepG2 cells as follows. Real time quantitative PCR assays were performed using an Applied Biosystems 7700 sequence detector (Applied Biosystems). Each reaction mixture contained 50 ng cDNA, 1.25 pmol each forward and reverse primer, and […] 2× SYBR Green PCR master mix (Applied Biosystems) in a final volume of 25 μl. The PCR conditions were 50° C. for 2 min, 95° C. for 10 min, and 40 cycles of 95° C. for 15 sec and 60° C. for 1 min. Samples were run in duplicate for each primer pair. Expression of glyceraldehyde-3-phosphate dehydrogenase (GAPDH) was analyzed in parallel as an internal control. Each sample was normalized to GAPDH and is represented in the Figure showing the results as arbitrary units with the expression levels in untreated cells assigned a value of one. The primer sequences are as follows: human SREBP-1c forward [NT] ID NO:1); human SREBP-1c reverse [NT] ID NO:2); human GAPDH forward [NT] ID NO:3) and human GAPDH reverse [NT] ID NO:4).

[4] = target: T1, human LXRα (Homo sapiens, UniProt Q13133); assay: Full-length hLXRα/hRXRα LXREx3 TK-Luc reporter assay in transfected CV-1 cells; format: cell-based; conditions: 20 μM, 40 hours
T1 construct: expressed in transfected cells; host or cells: CV-1 cells
T1 sequence (Q13133 1-447): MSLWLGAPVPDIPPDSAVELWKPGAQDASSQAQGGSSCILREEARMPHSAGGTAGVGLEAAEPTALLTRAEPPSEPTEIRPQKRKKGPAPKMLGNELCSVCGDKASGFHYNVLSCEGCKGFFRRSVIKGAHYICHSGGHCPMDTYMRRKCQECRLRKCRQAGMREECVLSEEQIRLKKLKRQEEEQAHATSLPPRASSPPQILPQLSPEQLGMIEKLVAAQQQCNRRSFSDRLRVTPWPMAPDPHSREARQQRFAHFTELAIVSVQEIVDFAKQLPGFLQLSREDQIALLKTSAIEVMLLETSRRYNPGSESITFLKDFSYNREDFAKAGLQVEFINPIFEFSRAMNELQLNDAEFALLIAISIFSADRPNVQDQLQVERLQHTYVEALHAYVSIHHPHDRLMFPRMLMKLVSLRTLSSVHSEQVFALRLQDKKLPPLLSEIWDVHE
T1 sequence (P19793 1-462 partner): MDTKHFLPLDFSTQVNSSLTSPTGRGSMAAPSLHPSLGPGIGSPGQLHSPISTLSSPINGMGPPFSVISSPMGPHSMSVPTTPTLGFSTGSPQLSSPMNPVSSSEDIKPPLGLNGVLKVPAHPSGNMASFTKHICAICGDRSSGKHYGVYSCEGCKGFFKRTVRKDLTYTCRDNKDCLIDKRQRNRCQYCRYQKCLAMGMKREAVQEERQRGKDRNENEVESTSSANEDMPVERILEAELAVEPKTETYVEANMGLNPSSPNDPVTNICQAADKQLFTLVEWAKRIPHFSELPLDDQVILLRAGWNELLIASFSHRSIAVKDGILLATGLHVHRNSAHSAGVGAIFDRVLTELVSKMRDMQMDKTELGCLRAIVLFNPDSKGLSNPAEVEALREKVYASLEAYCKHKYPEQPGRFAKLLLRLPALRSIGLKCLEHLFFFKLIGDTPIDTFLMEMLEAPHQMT
Description: CV-1 cells were grown in DMEM supplemented with 10% resin-charcoal stripped fetal bovine serum, 50 U/ml penicillin G and 50 μg/ml streptomycin sulfate at 37° C. in 5% CO2. Cells were plated to 50-80% confluence one day prior to transfection using phenol red-free DMEM-FBS. The cells were transfected by lipofection using N-[1-(2,3-dioleoyloxy)propyl]-N,N,N-ammonium methyl sulfate according to manufacturer's instructions (Boehringer Mannheim).
Genes encoding the following full-length proteins, which are suitable for use in the studies described herein, were cloned into pCMX: human RXRα (Gene Bank accession X52773) and human LXRα (GenBank accession U22662). The cells were transfected with CMX-βgal and luciferase constructs. The CMX-βGal construct contained the ligand binding domain of human RXR (hRXRα) and the ligand binding domain of human LXRα (hLXRα) as indicated in FIG. 1. The luciferase reporter construct (LXREx3 TK-Luc) contained the herpes virus thymidine kinase promoter (−105/+51) linked to three copies of the response element LXRE. After transfection, the cells were treated with 20 μM of a synthetic azole test compound or vehicle alone for 40 hours in phenol red-free DMEM-FBS.

[5] = target: LXRα (Homo sapiens, UniProt Q13133); assay: LXR activity, fatty acids

SMILES: O=S(=O)(c1ccccc1)N(CC(F)(F)F)c1ccc(C(O)(C(F)(F)F)C(F)(F)F)cc1 [T0901317]
plasma triglycerides compared to mice fed a control diet [1]: elevated plasma triglycerides | TG content compared to differentiation cocktail only [2]: small overall increase in TG content | increase of SREBP-1c expression [3]: up to 4 fold

antagonism of constitutive activation mediated by LXR (hLXRα activity, LXREx3 TK-Luc) [4]: inactive
SMILES: CC(=O)N1CCN(c2ccc(OCC3COC(Cn4ccnc4)(c4ccc(Cl)cc4Cl)O3)cc2)CC1 (centres unmarked) [ketonazole]

effect on LXR activity [5]: LXR antagonist
SMILES: CC/C=C\C/C=C\C/C=C\CCCCCCCC(=O)O [αlinoleic acid]
